Test results: patent publication US20240390328A1, “PHARMACEUTICAL COMPOSITION CONTAINING AS ACTIVE INGREDIENT COMPOUND CONJUGATED TO G4 STRUCTURES OF CORONAVIRUSES FOR PREVENTION OR TREATMENT OF CORONAVIRUS INFECTIOUS DISEASES” (priority 2020, published 2024)

How the values were obtained:
Assay type in all cases: binding
[1] = tested on: SARS-COV-2 RNA G4, position 644 (NsP1); assay: CD thermal melting analysis, G4 No. 2; conditions: G4 No. 2, position 644, NsP1; 15 μM RNA G4, 30 μM compound
Method: (§1) For melting, the samples were heated at 25 to 95° C. at 2° C./min with a data pitch of 0.5° C. CD melting analyses were performed with and without G4-binding compounds. The ratio of RNA: G4-binding compound was set to a molar ratio of 1:2. 15 μM RNA G4 was treated with 30 μM G4-binding compound and incubated at room temperature in a buffer comprising 10 mM Tris-HCl (pH 7.5) and 100 mM KCl for 30 minutes. Ellipticity was measured at 265 nm. Thereafter, data were normalized and plotted in OriginPro 2017 to calculate Tm values.
(§2) In addition, 15 μM RNA G4 was treated with 30 μM compound and incubated, and a CD thermal melting curve of RNA G4 (15 μM) was obtained in the presence or absence of the G4-binding compound. Furthermore, the effect of G4-binding compounds on the stability of SARS-COV-2 G4 was confirmed by measuring the difference in melting temperature (ΔTm). The results are illustrated in FIGS. 6A and 6B.

[2] = tested on: SARS-COV-2 RNA G4, position 25951 (ORF3a protein); assay: CD thermal melting analysis, G4 No. 20; conditions: G4 No. 20, position 25951, ORF3a protein; 15 μM RNA G4, 30 μM compound
Method: as §1, §2

[3] = tested on: SARS-COV-2 RNA G4, position 8687 (NsP4); assay: CD thermal melting analysis, G4 No. 9; conditions: G4 No. 9, position 8687, NsP4; 15 μM RNA G4, 30 μM compound
Method: as §1, §2

[4] = tested on: SARS-COV-2 RNA G4, position 22316 (Surface glycoprotein); assay: CD thermal melting analysis, G4 No. 16; conditions: G4 No. 16, position 22316, Surface glycoprotein; 15 μM RNA G4, 30 μM compound
Method: as §1, §2

[5] = tested on: SARS-COV-2 RNA G4, position 25197 (Surface glycoprotein); assay: CD thermal melting analysis, G4 No. 19; conditions: G4 No. 19, position 25197, Surface glycoprotein; 15 μM RNA G4, 30 μM compound
Method: as §1, §2

[6] = tested on: SARS-COV-2 RNA G4, position 4162 (NsP3); assay: CD thermal melting analysis, G4 No. 7; conditions: G4 No. 7, position 4162, NsP3; 15 μM RNA G4, 30 μM compound
Method: as §1, §2

[7] = tested on: SARS-COV-2 RNA G4, position 15448 (NsP12); assay: CD thermal melting analysis, G4 No. 14; conditions: G4 No. 14, position 15448, NsP12; 15 μM RNA G4, 30 μM compound
Method: as §1, §2

[8] = tested on: SARS-COV-2 RNA G4, position 3467 (NsP3); assay: CD thermal melting analysis, G4 No. 6; conditions: G4 No. 6, position 3467, NsP3; 15 μM RNA G4, 30 μM compound
Method: as §1, §2

[9] = tested on: SARS-COV-2 RNA G4, position 24215 (Surface glycoprotein); assay: CD thermal melting analysis, G4 No. 17; conditions: G4 No. 17, position 24215, Surface glycoprotein; 15 μM RNA G4, 30 μM compound
Method: as §1, §2

[10] = tested on: SARS-COV-2 RNA G4, position 4261 (NsP3); assay: CD thermal melting analysis, G4 No. 8; conditions: G4 No. 8, position 4261, NsP3; 15 μM RNA G4, 30 μM compound
Method: as §1, §2

[11] = tested on: SARS-COV-2 RNA G4, position 28903 (Nucleocapsid protein); assay: CD thermal melting analysis, G4 No. 23; conditions: G4 No. 23, position 28903, Nucleocapsid protein; 15 μM RNA G4, 30 μM compound
Method: as §1, §2

[12] = tested on: SARS-COV-2 RNA G4, position 24268 (Surface glycoprotein); assay: CD thermal melting analysis, G4 No. 18; conditions: G4 No. 18, position 24268, Surface glycoprotein; 15 μM RNA G4, 30 μM compound
Method: as §1, §2

[13] = tested on: SARS-COV-2 RNA G4, position 29234 (Nucleocapsid protein); assay: CD thermal melting analysis, G4 No. 25; conditions: G4 No. 25, position 29234, Nucleocapsid protein; 15 μM RNA G4, 30 μM compound
Method: as §1, §2

[14] = tested on: SARS-COV-2 RNA G4, position 13385 (NsP10); assay: CD thermal melting analysis, G4 No. 11; conditions: G4 No. 11, position 13385, NsP10; 15 μM RNA G4, 30 μM compound
Method: as §1, §2

[15] = tested on: SARS-COV-2 RNA G4, position 26746 (Membrane protein); assay: CD thermal melting analysis, G4 No. 21; conditions: G4 No. 21, position 26746, Membrane protein; 15 μM RNA G4, 30 μM compound
Method: as §1, §2

[16] = tested on: 25 G4s predicted for SARS-COV-2; assay: CD thermal melting analysis, comparison of ΔTm over all G4s; conditions: for effect on stability of SARS-COV-2 G4 (ΔTm), in words: 15 μM RNA G4, 30 μM compound, FIGS. 6A and 6B; for number of G4s Destabilized: of the 25 SARS-COV-2 G4s
[17] = tested on: SARS-COV-2 RNA G4, position 353 (NsP1); assay: CD thermal melting analysis, G4 No. 1; conditions: G4 No. 1, position 353, NsP1; 15 μM RNA G4, 30 μM compound
Method: as §1, §2

[18] = tested on: SARS-COV-2 RNA G4, position 18296 (NsP12); assay: CD thermal melting analysis, G4 No. 15; conditions: G4 No. 15, position 18296, NsP12; 15 μM RNA G4, 30 μM compound
Method: as §1, §2

[19] = tested on: SARS-COV-2 RNA G4, position 1463 (NsP2); assay: CD thermal melting analysis, G4 No. 3; conditions: G4 No. 3, position 1463, NsP2; 15 μM RNA G4, 30 μM compound
Method: as §1, §2

For `CN1CCC[C@H]1CCNC(=O)c1cn2c3c(c(N4CCC(c5cnccn5)C4)c(F)cc3c1=O)Oc1cc3ccccc3cc1-2` (stereo partly drawn) [CX-3543, 15-fluoro-N-[2-[(2S)-1-methylpyrrolidin-2-yl]ethyl]-18-oxo-14-(3-pyrazin-2-ylpyrrolidin-1-yl)-12-oxa-1-azapentacyclo [11.7.1.0^2,11.0^4,9.0^17,21]henicosa-2,4,6,8, 10, 13 (21), 14,16,19-nonaene-19-carboxamide], the “Tm in ° C. with compound” value [1] was 53.32 °C, the ΔTm [1] was 5.59 °C and the “Tm in ° C. with compound” value [2] was 53.87 °C. For the same compound, the ΔTm [2] was 5.13 °C, the “Tm in ° C. with compound” value [3] was 49.83 °C and the ΔTm [3] was 2.97 °C. For the same compound, the “Tm in ° C. with compound” value [4] was 49.56 °C, the ΔTm [4] was 1.28 °C and the “Tm in ° C. with compound” value [5] was 66.57 °C. The ΔTm [5] was −4.62 °C, the “Tm in ° C. with compound” value [6] was 58.94 °C and the ΔTm [6] was 2.05 °C. The “Tm in ° C. with compound” value [7] was 58.58 °C, the ΔTm [7] was 5.96 °C and the “Tm in ° C. with compound” value [8] was 63.54 °C. For the same compound, the ΔTm [8] was −2.01 °C, the “Tm in ° C. with compound” value [9] was 57.16 °C and the ΔTm [9] was 1.74 °C. The “Tm in ° C. with compound” value [10] was 63.89 °C, the ΔTm [10] was 13.58 °C and the “Tm in ° C. with compound” value [11] was 63.45 °C. For the same compound, the ΔTm [11] was 6.34 °C, the “Tm in ° C. with compound” value [12] was 40.42 °C and the ΔTm [12] was −0.05 °C. For the same compound, the “Tm in ° C. with compound” value [13] was 58.52 °C, the ΔTm [13] was −3.65 °C and the “Tm in ° C. with compound” value [14] was 52.87 °C. For the same compound, the ΔTm [14] was 7.27 °C, the “Tm in ° C. with compound” value [15] was 59.29 °C and the ΔTm [15] was −3.37 °C. The “effect on stability of SARS-COV-2 G4 (ΔTm), in words” value [16] was “did not show any noticeable change”, the “number of G4s Destabilized” value [16] was 6 and the “Tm in ° C. with compound” value [17] was 72.64 °C. The ΔTm [17] was 1.05 °C, the “Tm in ° C. with compound” value [18] was 63.64 °C and the ΔTm [18] was 4.81 °C. For the same compound, the “Tm in ° C. with compound” value [19] was 66.55 °C and the ΔTm [19] was 11.03 °C.
With `NCCOc1cc(C(=O)Nc2cc(OCCN)c3ccccc3n2)nc(C(=O)Nc2cc(OCCN)c3ccccc3n2)c1` [PDS, 4-(2-aminoethoxy)-N2,N6-bis(4-(2-aminoethoxy)quinolin-2-yl)pyridine-2,6-dicarboxamide] the “Tm in ° C. with compound” value [1] was 70.59 °C, the ΔTm [1] was 22.86 °C and the “Tm in ° C. with compound” value [2] was 92.26 °C. For the same compound, the ΔTm [2] was 43.52 °C, the “Tm in ° C. with compound” value [3] was 84.44 °C and the ΔTm [3] was 37.58 °C. The “Tm in ° C. with compound” value [4] was 55.62 °C, the ΔTm [4] was 7.34 °C and the “Tm in ° C. with compound” value [5] was 68.63 °C. For the same compound, the ΔTm [5] was −2.56 °C, the “Tm in ° C. with compound” value [6] was 56.03 °C and the ΔTm [6] was −0.86 °C. The “Tm in ° C. with compound” value [7] was 56.5 °C, the ΔTm [7] was 3.88 °C and the “Tm in ° C. with compound” value [8] was 88.65 °C. The ΔTm [8] was 23.1 °C, the “Tm in ° C. with compound” value [9] was 62.93 °C and the ΔTm [9] was 7.51 °C. The “Tm in ° C. with compound” value [10] was 79.18 °C, the ΔTm [10] was 28.87 °C and the “Tm in ° C. with compound” value [11] was 60.46 °C. For the same compound, the ΔTm [11] was 3.35 °C, the “Tm in ° C. with compound” value [12] was 46.11 °C and the ΔTm [12] was 5.64 °C. The “Tm in ° C. with compound” value [13] was 80.2 °C, the ΔTm [13] was 18.03 °C and the “Tm in ° C. with compound” value [14] was 63.07 °C. For the same compound, the ΔTm [14] was 17.47 °C, the “Tm in ° C. with compound” value [15] was 68.77 °C and the ΔTm [15] was 6.11 °C. The “effect on stability of SARS-COV-2 G4 (ΔTm), in words” value [16] was “significantly stabilized most G4s”, the “proportion of the G4s with ΔTm>20° C.” value ([16]; among the 25 G4s predicted for SARS-COV-2) was 36% and the “number of G4s Destabilized” value [16] was 2. The “Tm in ° C. with compound” value [17] was 87.66 °C, the ΔTm [17] was 16.07 °C and the “Tm in ° C. with compound” value [18] was 82.4 °C. The ΔTm [18] was 23.57 °C, the “Tm in ° C. with compound” value [19] was 60.04 °C and the ΔTm [19] was 4.52 °C.
